From US12617777B2, “GPR84 antagonists and uses thereof” (Liminal BioSciences Limited, priority 2021, dated 2026)

Target: T1, human GPR84 receptor (Homo sapiens, UniProt Q9NQS5)
T1 construct: host or cells: HEK293, transient transfection
Assay: Gαi biosensor BRET assay in HEK293 cells (antagonism of ZQ-16)
Format: cell-based
Conditions: for inhibition at 10 µM: HEK293, single concentration 10 μM (designated F); for IC50: HEK293 cells, antagonism of 200 nmol/L ZQ-16; for inhibition at 2 µM: HEK293, single concentration 2 μM (designated A)
How it was run: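 HEK293 cells transiently expressing human GPR84, Gαi2-Rluc8, GFP10-Gγ2 and Gβ1, in Tyrode's buffer pH 7.5. Compounds preincubated 5 min at 37° C, then 200 nmol/L ZQ-16 for 5 min at room temperature; coelenterazine 400A 5 μmol/L. BRET2 acceptor/donor ratio, background- and vehicle-corrected net BRET.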

T1 sequence (Q9NQS5 whole entry): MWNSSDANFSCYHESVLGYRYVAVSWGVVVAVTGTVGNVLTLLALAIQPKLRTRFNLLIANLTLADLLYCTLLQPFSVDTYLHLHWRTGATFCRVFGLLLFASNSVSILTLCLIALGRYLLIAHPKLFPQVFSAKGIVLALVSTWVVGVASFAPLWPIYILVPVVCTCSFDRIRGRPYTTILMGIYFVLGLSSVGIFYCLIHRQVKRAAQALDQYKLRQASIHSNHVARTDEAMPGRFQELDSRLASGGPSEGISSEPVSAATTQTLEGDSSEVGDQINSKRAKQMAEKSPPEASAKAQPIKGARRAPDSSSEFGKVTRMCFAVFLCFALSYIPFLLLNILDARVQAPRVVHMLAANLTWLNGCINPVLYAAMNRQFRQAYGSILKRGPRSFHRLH

| inhibition at 10 µM [%] | IC50 [nM] | inhibition at 2 µM [%] | SMILES |
| --- | --- | --- | --- |
| > 75 | > 3000 | – | Cc1cc(C#CCNC(=O)OC(C)C)cnc1-c1cn(CC2CCCCO2)nn1 (centres unmarked) [Compound I-570, isopropyl (3-(5-methyl-6-(1-((tetrahydro-2H-pyran-2-yl)methyl)-1H-1,2,3-triazol-4-yl)pyridin-3-yl)prop-2-yn-1-yl)carbamate] |
| ≤ 25 | – | – | Cc1cc(N2CC3(CC3)C2)cnc1-c1cn(CC2CCCCO2)nn1 (centres unmarked) [Compound I-571] |
| > 75 | – | – | COC(=O)NCC#Cc1cnc(-c2cn(CC3CCCCO3)nn2)c(C)c1 (centres unmarked) [Compound I-573] |
| ≤ 25 | – | – | Cc1c(-c2ccc(C#CC3CC3)cc2)nnn1CC1CCCCS1(=O)=O (centres unmarked) [Compound I-574] |
| > 75 | – | – | Cc1cc(C#CC2CC2)cc(F)c1-c1cn(CC2CCCCO2)nn1 (centres unmarked) [Compound I-575] |
| 50 to 75 | – | – | Cc1cc(C#CC2COC2)ccc1-c1cn(CC2CCCCO2)nn1 (centres unmarked) [Compound I-576] |
| 25 to 50 | – | – | Cc1cc(N2CCN(Cc3cnccn3)CC2)ccc1-c1cn(CC2CCCCO2)nn1 (centres unmarked) [Compound I-577] |
| 50 to 75 | > 3000 | – | Cc1cc(N2CCN(Cc3cccnc3)CC2)ccc1-c1cn(CC2CCCCO2)nn1 (centres unmarked) [Compound I-578] |
| > 75 | – | – | Cc1cc(N2CCN(Cc3ncco3)CC2)ccc1-c1cn(CC2CCCCO2)nn1 (centres unmarked) [Compound I-579] |
| 25 to 50 | – | – | Cc1cc(N2CCN(Cc3nccn3C)CC2)ccc1-c1cn(CC2CCCCO2)nn1 (centres unmarked) [Compound I-580] |
| ≤ 25 | – | – | Cc1cc(N2CCN(Cc3ccnn3C)CC2)ccc1-c1cn(CC2CCCCO2)nn1 (centres unmarked) [Compound I-581] |
| > 75 | – | – | Cc1cc(N2CCN(Cc3ccn(C)n3)CC2)ccc1-c1cn(CC2CCCCO2)nn1 (centres unmarked) [Compound I-582] |
| ≤ 25 | – | – | Cc1cc(C2CCN(c3ccccn3)CC2)ccc1-c1cn(CC2CCCCO2)nn1 (centres unmarked) [Compound I-583] |
| > 75 | – | – | Cc1cc(N2CC(C)(C)C2)cnc1-c1cn(CC2OCC(C)(C)CO2)nn1 [Compound I-584] |
| > 75 | 1000 to 3000 | – | CCc1cc(C#CCNC(=O)OC)ccc1-c1cn(CC2CCCCO2)nn1 (centres unmarked) [Compound I-586] |
| 50 to 75 | 300 to 1000 | – | Cc1ccc(C#CC2CC2)cc1Cc1cn(C[C@H]2CCCCO2)nn1 [Compound I-587] |
| ≤ 25 | – | – | Cc1cc(N2CC3(CCCN3Cc3ccccn3)C2)ccc1-c1cn(CC2CCCCO2)nn1 (centres unmarked) [Compound I-590] |
| 50 to 75 | – | – | COC(c1cn(CC2OCC(C)(C)CO2)nn1)c1cc(C#CC2CC2)ccc1C (centres unmarked) [Compound I-592] |
| ≤ 25 | – | – | COC(c1cn(CC2CCCCO2)nn1)c1cc(N2CC(C)(C)C2)ccc1C (centres unmarked) [Compound I-593] |
| > 75 | ≤ 300 | – | CCOC(c1cn(CC2CCCCO2)nn1)c1cc(C#CC2CC2)ccc1C (centres unmarked) [Compound I-594] |
| > 75 | – | – | Cc1cc(N2CC(C)(CO)C2)cnc1-c1cn(CC2OCC(C)(C)CO2)nn1 [Compound I-595] |
| 50 to 75 | – | – | Cc1cc(N2CCN(Cc3ccccn3)CC2)cnc1-c1cn(CC2OCC(C)(C)CO2)nn1 [Compound I-597] |
| > 75 | 1000 to 3000 | – | CCc1cc(C#CCNC(=O)OC(C)C)ccc1-c1cn(CC2CCCCO2)nn1 (centres unmarked) [Compound I-598] |
| ≤ 25 | – | – | Cc1cc(C#CC2CC2)ccc1-c1cn(CC2CC(C)(C)CCO2)nn1 (centres unmarked) [Compound I-599] |
| > 75 | 1000 to 3000 | – | CC(C)c1cc(N2CC(C)(C)C2)cnc1-c1cn(CC2CC(C)(C)O2)nn1 (centres unmarked) [Compound I-600] |

| inhibition at 10 µM [%] | IC50 [nM] | inhibition at 2 µM [%] | SMILES |
| --- | --- | --- | --- |
| ≤ 25 | – | – | Cc1cc(C#CC2CC2)cnc1-c1cn(CC2OCC(C)(C)O2)nn1 (centres unmarked) [Compound I-601] |
| ≤ 25 | – | – | CCc1cc(C#CC2CC2)cnc1-c1cn(CC2OCC(C)(C)O2)nn1 (centres unmarked) [Compound I-602] |
| 50 to 75 | > 3000 | – | Cc1cc(N2CCN(Cc3ccccn3)CC2)ccc1-c1cn(CC2OCC(C)(C)O2)nn1 (centres unmarked) [Compound I-603] |
| > 75 | 1000 to 3000 | – | Cc1ccc(C#CC2CC2)cc1C1(c2cn(CC3CCCCO3)nn2)OCCO1 (centres unmarked) [Compound I-604] |
| > 75 | 300 to 1000 | – | COC(c1cn(CC2Oc3ccccc3O2)nn1)c1cc(C#CC2CC2)ccc1C (centres unmarked) [Compound I-605] |
| 50 to 75 | – | – | CC(C)Oc1cc(C#CCNc2ccccn2)cnc1-c1cn(CC2CC(C)(C)CO2)nn1 (centres unmarked) [Compound I-606] |
| 25 to 50 | – | – | COC(=O)NCC#Cc1ccc(-c2cn(CC3CCCCO3)nn2)c(C)c1 (centres unmarked) [Compound I-607] |
| > 75 | 300 to 1000 | – | Cc1cc(C#CCNC(=O)OCc2ccccc2)ccc1-c1cn(CC2CCCCO2)nn1 (centres unmarked) [Compound I-608] |
| 50 to 75 | > 3000 | – | Cc1cc(N2CC(C)(C)C2)cnc1-c1cn(CC2CCCCO2)cn1 (centres unmarked) [Compound I-609] |
| – | – | ≤ 25 | Cc1cc(C#CC2CC2)ccc1-c1cn(CC2CCCC(C)(C)O2)nn1 (centres unmarked) [Compound I-610] |
| 25 to 50 | – | – | Cc1cc(N2CCN([C@H](C)c3ccccn3)CC2)ccc1-c1cn(C[C@H]2CCCCO2)nn1 [Compound I-611] |
| ≤ 25 | – | – | Cc1cc(N2CCN(C3(c4ccccn4)CC3)CC2)ccc1-c1cn(CC2CCCCO2)nn1 (centres unmarked) [Compound I-613] |
| 50 to 75 | – | – | Cc1cc(N2CC(C)(CO)C2)ccc1-c1cn(CC2OCC(C)(C)CO2)nn1 [Compound I-614] |
| 50 to 75 | – | – | Cc1cc(N2CCN(Cc3ccccn3)CC2)ccc1-c1cn(CC2OCC(F)(F)CO2)nn1 [Compound I-615] |
| > 75 | > 3000 | – | Cc1cc(C#CCNC(=O)OC(C)C)ccc1-c1cn(CC2CCCCO2)nn1 (centres unmarked) [Compound I-616] |
| > 75 | ≤ 300 | – | Cc1ccc(C#CC2CC2)cc1C(OCC(F)(F)F)c1cn(CC2OCC(C)(C)CO2)nn1 (centres unmarked) [Compound I-617, 4-((5-(cyclopropylethynyl)-2-methylphenyl)(2,2,2-trifluoroethoxy)methyl)-1-((5,5-dimethyl-1,3-dioxan-2-yl)methyl)-1H-1,2,3-triazole] |
| 50 to 75 | – | – | COC(c1cn(CC2CCCCO2)nn1)c1cc(C#CC2CC2)ccc1F (centres unmarked) [Compound I-621] |
| – | – | ≤ 25 | Cc1cc2ccc(N3CC(C)(C)C3)cc2nc1-c1cn(CC2CCCCO2)nn1 (centres unmarked) [Compound I-622] |
| 50 to 75 | – | – | Cc1cc(N2CC3(CCCN3c3ccccn3)C2)ccc1-c1cn(CC2CCCCO2)nn1 (centres unmarked) [Compound I-623] |
| ≤ 25 | – | – | Cc1c(C(C)c2cccc(C#CC3CC3)c2)nnn1CC1CCCCO1 (centres unmarked) [Compound I-624] |
| 50 to 75 | – | – | Cc1ccc(C#CC2CC2)cc1-c1noc(CC2CCCCO2)n1 (centres unmarked) [Compound I-625] |
| 25 to 50 | – | – | Cc1cc(N2CC(C)(CO)C2)ccc1-c1cn(CC2OCC(C)(C)O2)nn1 (centres unmarked) [Compound I-626] |
| > 75 | – | – | Cc1cc(C#CCN2CC(C)(C)C2)cnc1-c1cn(CC2Oc3ccccc3O2)nn1 [Compound I-627] |
| > 75 | – | – | Cc1cc(N2CC(C)(CO)C2)cnc1-c1cn(CC2Oc3ccccc3O2)nn1 [Compound I-628] |
| ≤ 25 | – | – | Cc1cc(N2CC3(CN(c4cccnc4)C3)C2)ccc1-c1cn(CC2CCCCO2)nn1 (centres unmarked) [Compound I-629] |

| SMILES | inhibition at 10 µM [%] | IC50 [nM] | inhibition at 2 µM [%] |
| --- | --- | --- | --- |
| Cc1ccc(C#CC2CC2)cc1C(=O)c1cn(CC2CCCCO2)nn1 (centres unmarked) [Compound I-591] | > 75 | 300 to 1000 | – |
| Cc1cc(C#CCNC(=O)Oc2ccccc2)ccc1-c1cn(CC2CCCCO2)nn1 (centres unmarked) [Compound I-619] | > 75 | ≤ 300 | – |
